Measured values from patent US20070111989A1, “Novel diazabicyclononene derivatives and use” (priority 2004, published 2007).
pIC50: −log10 of the molar value.

Target: T1, human recombinant renin (Homo sapiens, UniProt P00797)
T1 sequence (P00797 67-406): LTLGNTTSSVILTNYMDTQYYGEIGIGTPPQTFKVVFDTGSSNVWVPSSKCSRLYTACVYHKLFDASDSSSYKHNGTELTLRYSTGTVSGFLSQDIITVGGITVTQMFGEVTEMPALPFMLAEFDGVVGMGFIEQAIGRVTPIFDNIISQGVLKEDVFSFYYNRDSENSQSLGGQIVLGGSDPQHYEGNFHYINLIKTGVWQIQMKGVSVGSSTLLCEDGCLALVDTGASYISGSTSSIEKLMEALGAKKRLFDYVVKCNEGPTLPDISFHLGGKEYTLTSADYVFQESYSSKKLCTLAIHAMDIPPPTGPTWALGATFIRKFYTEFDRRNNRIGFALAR
Experiment: Inhibition of human recombinant renin, enzymatic in vitro assay with Ang I EIA detection
Type: biochemical
Settings: human recombinant renin 0.16 ng/mL, synthetic human angiotensin(1-14) 0.5 μM, 37° C. for 3 h; read-out: IC50 (concentration that inhibited the enzyme activity by 50%)
Procedure: Inhibition of Human Recombinant Renin by the Compounds of the Invention The enzymatic in vitro assay was performed in 384-well polypropylene plates (Nunc). The assay buffer consisted of 10 mM PBS (Gibco BRL) including 1 mM EDTA and 0.1% BSA. The incubates were composed of 50 μL per well of an enzyme mix and 2.5 μL of renin inhibitors in DMSO. The enzyme mix was premixed at 4° C. and consists of the following components: • human recombinant renin (0.16 ng/mL) • synthetic human angiotensin(1-14) (0.5 μM) • hydroxyquinoline sulfate (1 mM) The mixtures were then incubated at 37° C. for 3 h. To determine the enzymatic activity and its inhibition, the accumulated Ang I was detected by an enzyme immunoassay (EIA) in 384-well plates (Nunc). 5 μL of the incubates or standards were transferred to immuno plates which were previously coated with a covalent complex of Ang I and bovine serum albumin (Ang 1-BSA). 75 μL of Ang I-antibodies in essaybuffer above including 0.01% Tween 20 were added and a primary incubation made at 4° C. overnight. The plates were washed 3 times with PBS including 0.01% Tween 20, and then incubated for 2 h at rt with an antirabbit-peroxidase coupled antibody (WA 934, Amersham).

pIC50 | SMILES
9.00 | COCCOc1nccc(CN(C(=O)C2=C(c3ccc(CCCOc4c(F)ccc(F)c4Cl)cc3)C[C@@H]3CNC[C@H]2N3)C2CC2)c1C (racemic) [Example 1, (rac.)-(1R*,5S*)-7-{4-[3-(2-Chloro-3,6-difluorophenoxy)propyl]phenyl}-3,9-diazabicyclo[3.3.1]non-6-ene-6-carboxylic acid cyclopropyl-[2-(2-methoxy-ethoxy)-3-methylpyridin-4-ylmethyl]amide]
8.98 | COCCOc1cccc(CN(C(=O)C2=C(c3ccc(CCCOc4c(F)ccc(F)c4Cl)cc3)CC3CNCC2N3)C2CC2)c1C (racemic) [Example 2, (rac.)-(1R*,5S*)-7-{(4-[3-(2-Chloro-3,6-difluorophenoxy)propyl]phenyl}-3,9-diazabicyclo[3.3.1]non-6-ene-6-carboxylic acid cyclopropyl-[3-(2-methoxy-ethoxy)-2-methylbenzyl]amide]
